Patent US20230241071A1, “COMBINATION TREATMENT OF LIVER DISORDERS” (Terns Pharmaceuticals, Inc., priority 2021, published 2023)
“Also recorded” adds a separate entry of the source.

Experiments:
SSAO = molecular target: T1, SSAO (Homo sapiens, UniProt Q16853); assay: Plasma SSAO/amine oxidase activity and methylamine after a single dose of Compound 1; assay type: in vivo
T1 construct: from tissue; host or cells: human plasma from dosed participants
T1 sequence (Q16853 29-763 limits assumed): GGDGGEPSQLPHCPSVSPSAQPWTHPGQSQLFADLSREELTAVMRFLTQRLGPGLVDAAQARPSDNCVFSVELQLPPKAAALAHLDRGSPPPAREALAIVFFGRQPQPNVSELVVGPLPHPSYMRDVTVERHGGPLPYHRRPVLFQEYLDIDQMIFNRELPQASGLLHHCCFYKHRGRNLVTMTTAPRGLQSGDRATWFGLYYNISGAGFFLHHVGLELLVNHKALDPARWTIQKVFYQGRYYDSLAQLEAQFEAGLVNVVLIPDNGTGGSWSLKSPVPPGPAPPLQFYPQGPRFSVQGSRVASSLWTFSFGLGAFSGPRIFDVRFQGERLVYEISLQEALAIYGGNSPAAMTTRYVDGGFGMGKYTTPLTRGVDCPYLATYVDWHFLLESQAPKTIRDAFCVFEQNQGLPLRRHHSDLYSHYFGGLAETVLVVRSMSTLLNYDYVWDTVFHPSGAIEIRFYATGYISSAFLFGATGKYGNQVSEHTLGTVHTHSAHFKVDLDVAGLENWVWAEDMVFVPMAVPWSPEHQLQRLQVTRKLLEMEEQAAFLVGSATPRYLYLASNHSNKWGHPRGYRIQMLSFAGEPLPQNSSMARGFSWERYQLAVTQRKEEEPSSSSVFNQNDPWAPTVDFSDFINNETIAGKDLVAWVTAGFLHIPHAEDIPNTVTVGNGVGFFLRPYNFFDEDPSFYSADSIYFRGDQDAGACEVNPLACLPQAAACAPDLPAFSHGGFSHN
Method: Safety was assessed for 7 (±3) days after dosing.
Plasma PK parameters were determined by non-compartmental analysis.
SSAO-specific amine oxidase levels in plasma were determined using a kinetic-based assay essentially as described previously (Schilter et al). Endogenous monoamine oxidases A and B were inhibited by adding pargyline to plasma samples prior to measuring H2O2 generation levels in placebo and active recipients.

[1] = Multiple-ascending dose trial of Compound 1 in healthy participants: safety and PK; assay type: in vivo, human; settings: for Cmax / Tmax / AUC(0-t) / half-life: human, plasma; for Cmax / AUC(0-t): mean (CV %); for Tmax / half-life: median (min, max)
Method: A multiple-ascending dose clinical trial of Compound 1 was performed.

[2] = tested on: SD rats fed a high cholesterol diet; assay: Rat hypercholesterolemic model; assay type: in vivo; settings: single IP dose 0.3 to 30 mpk, 24 h after injection
Method: SD rats were fed a high cholesterol diet for 2 weeks, increasing the serum cholesterol levels ˜4-fold over that time. Single doses of Compound 2 from 0.3 to 30 mpk or a single 30 mpk dose of MGL-3196 were injected IP and serum was analyzed for total serum cholesterol and triglycerides 24 h after the injection.

THR-β = molecular target: T2, THR-β (Homo sapiens, UniProt P10828); assay: Binding activity to the thyroxine receptor beta
T2 sequence (P10828 1-461): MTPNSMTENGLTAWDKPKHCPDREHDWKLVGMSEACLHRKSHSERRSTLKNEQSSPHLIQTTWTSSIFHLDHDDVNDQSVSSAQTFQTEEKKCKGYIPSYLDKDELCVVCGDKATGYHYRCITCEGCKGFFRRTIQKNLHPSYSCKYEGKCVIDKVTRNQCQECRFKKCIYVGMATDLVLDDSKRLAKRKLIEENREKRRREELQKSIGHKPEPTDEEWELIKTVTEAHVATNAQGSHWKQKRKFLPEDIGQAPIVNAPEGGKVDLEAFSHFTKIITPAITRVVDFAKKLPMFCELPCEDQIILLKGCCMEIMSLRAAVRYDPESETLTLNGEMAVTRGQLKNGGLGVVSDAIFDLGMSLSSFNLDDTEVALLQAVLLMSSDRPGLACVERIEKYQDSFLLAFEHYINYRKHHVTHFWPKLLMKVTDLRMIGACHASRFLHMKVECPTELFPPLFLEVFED

[3] = 10 mg, 10 mg QD, Last day (of 14)

## COC1CCN(c2ncc(OC/C(=C/F)CN)cn2)CC1 [Compound 1, (E)-3-fluoro-2-(((2-(4-methoxypiperidin-1-yl)pyrimidin-5-yl)oxy)methyl)prop-2-en-1-amine]
SSAO; 4 hours post-dose, all dose cohorts (1-10 mg)
  inhibition of plasma SSAO activity: Near complete inhibition
SSAO; single dose 1-10 mg
  duration of suppression of plasma SSAO activity after a single dose: up to 1 week
  plasma methylamine (MMA): Maximum plasma MMA levels increased; also recorded: Dose-dependent increases
[1]; 1 mg QD 7 days (n = 6)
  Subject incidence of TEAEs considered possibly treatment-related: 1 (16.7) n (%)
  Subject incidence of any TEAE: 2 (33.3) n (%)
  TEAE frequency: Back pain: 0
  TEAE frequency: Catheter site inflammation: 0
  TEAE frequency: Contusion: 0
  TEAE frequency: Dermatitis contact: 1 (16.7)
  TEAE frequency: Diarrhea: 0
  TEAE frequency: Dizziness: 1 (16.7)
  TEAE frequency: Medical device site reaction: 0
  TEAE frequency: Rhinitis: 0
  TEAE frequency: headache: 1 (12.5)
[1]; 4 mg QD 7 days (n = 6)
  Subject incidence of TEAEs considered possibly treatment-related: 0 n (%)
  Subject incidence of any TEAE: 2 (33.3) n (%)
  TEAE frequency: Back pain: 0
  TEAE frequency: Catheter site inflammation: 0
  TEAE frequency: Contusion: 0
  TEAE frequency: Dermatitis contact: 2 (33.3)
  TEAE frequency: Diarrhea: 0
  TEAE frequency: Dizziness: 0
  TEAE frequency: Medical device site reaction: 0
  TEAE frequency: Rhinitis: 0
  TEAE frequency: headache: 0
[1]; 10 mg QD
  time to steady state: 7 days
[1]; 10 mg QD 14 days (n = 6)
  Subject incidence of TEAEs considered possibly treatment-related: 0 n (%)
  Subject incidence of any TEAE: 6 (100) n (%)
  TEAE frequency: Back pain: 0
  TEAE frequency: Catheter site inflammation: 0
  TEAE frequency: Contusion: 0
  TEAE frequency: Dermatitis contact: 0
  TEAE frequency: Diarrhea: 0
  TEAE frequency: Dizziness: 0
  TEAE frequency: Medical device site reaction: 6 (100)
  TEAE frequency: Rhinitis: 1 (16.7)
  TEAE frequency: headache: 0
[1]; 1, 4, 10 mg QD
  half-life versus dose: increased with dose
[1]; between dose groups on Day 1
  plasma PK exposure, dose proportionality: greater than dose proportional
[1]; 1 mg, 1 mg QD, Day 1
  Cmax: 0.568 ng/mL
  Tmax: 1.53 h
[1]; 1 mg, 1 mg QD, Last day (of 7)
  AUC(0-t): 13.3 ng·h/mL
  Cmax: 2.75 ng/mL
  Tmax: 2.51 h
[1]; 4 mg, 4 mg QD, Day 1
  AUC(0-t): 17.1 ng·h/mL
  Cmax: 5.11 ng/mL
  Tmax: 2.02 h
[1]; 4 mg, 4 mg QD, Last day (of 7)
  AUC(0-t): 198 ng·h/mL
  Cmax: 18.6 ng/mL
  Tmax: 3.03 h
[1]; 10 mg, 10 mg QD, Day 1
  AUC(0-t): 102 ng·h/mL
  Cmax: 17.7 ng/mL
  Tmax: 1.9 h
[1]; [3]
  AUC(0-t): 656 ng·h/mL
  Cmax: 47.5 ng/mL
  Tmax: 3.98 h
[1]; 1 mg QD, Last day (of 7)
  half-life: 136 min
[1]; 4 mg QD, Last day (of 7)
  half-life: 403 min
[1]; 10 mg QD, Last day (of 14)
  half-life: 798 min
[1]; overall Compound 1 (n = 18)
  Subject incidence of TEAEs considered possibly treatment-related: 1 (5.6) n (%)
  Subject incidence of any TEAE: 10 (55.6) n (%)
  TEAE frequency: Back pain: 0
  TEAE frequency: Catheter site inflammation: 0
  TEAE frequency: Contusion: 0
  TEAE frequency: Dermatitis contact: 3 (16.7)
  TEAE frequency: Diarrhea: 0
  TEAE frequency: Dizziness: 1 (5.6)
  TEAE frequency: Medical device site reaction: 6 (33.3)
  TEAE frequency: Rhinitis: 1 (5.6)
  TEAE frequency: headache: 1 (5.6)
[1]; up to 10 mg QD for 14 days
  safety and tolerability: mild (grade 1); also recorded: safe and well tolerated

## N#Cc1nn(-c2cc(Cl)c(Oc3n[nH]c(=O)c4ccccc34)c(Cl)c2)c(=O)[nH]c1=O [Compound 2, 2-(3,5-dichloro-4-((4-oxo-3,4-dihydrophthalazin-1-yl)oxy)phenyl)-3,5-dioxo-2,3,4,5-tetrahydro-1,2,4-triazine-6-carbonitrile]
[2]
  reduction of serum triglycerides from time 0: 30-80%
  reduction of total cholesterol in the serum: 30-70%
THR-β; ratio of binding IC50
  THR-α/-β selectivity: >58.8 factor
THR-β; read-out: IC50 THR-β binding force
  IC50: 170 nM
